From PMC7269146, “Jingzhaotoxin-X, a gating modifier of Kv4.2 and Kv4.3 potassium channels purified from the venom of the Chinese tarantula Chilobrachys jingzhao” (The Journal of Venomous Animals and Toxins Including …, 2020)
Entries after “also recorded” stand apart in the source; their conditions may differ. Where a SMILES comes first, the peptide text is derived from it. Bridges are numbered along the chain shown (N, C = ends).

What was measured:
[1] = tested on: Kv1.2; test: microelectrode voltage-clamp, Xenopus laevis oocytes, Kv1.2; type: cell-based; settings: 10 μM, 300-ms depolarization to +20 mV from -90 mV, pH 7.5, 19-23°C, n = 3
Description: Briefly, plasmids were linearized, and transcription was carried out according to the standardized protocol. Afterwards, the capped cRNAs that encoded the related ion channels were prepared. To conduct transcription in vitro, firstly, NotL was utilized to linearize plasmids pCI that contained both Kv1.1 (Accession: NM_010595.3) and Kv2.1 (Accession: AF026005.1), whereas SphI was adopted to linearize plasmid PcDNA3 containing Kv1.2 (Accession: NM_012970.3) gene. […] Thereafter, the linearized plasmids were used as the templates to synthesize cRNAs in vitro using the large-scale T7 mMESSAGE mMACHINE transcription kit (Ambion, USA).
A mature female X. laevis was placed on the ice for anesthesia, and then the Xenopus laevis oocytes at stage IV-VI were extracted. Subsequently, those extracted oocytes were treated by collagenase (1 mg/mL) contained within the calcium-depleted ND96 solution (containing 96 mM NaCl, 10 mM HEPES, 1 mM MgCl2, and 2 mM KCl) for defolliculation. […]
(§1) Firstly, the effects of JZTX-X on the isoforms of potassium channels (including Kv1.1-1.3, Kv2.1, as well as Kv4.2-4.3) contained within the X. laevis oocytes were investigated through the microelectrode voltage-clamp approach. […] We also determined the effects of JZTX-X on Ito potassium channels in rat DRG neurons; those current amplitudes were inhibited by 54.4±6.8% when 500 nM JZTX-X was applied (Fig. 3K, n = 5).

[2] = tested on: Nav1.5; test: voltage-clamp, Nav1.5 currents; type: cell-based, human; settings: 1 μM; n = 3
Text: Rat cDNA genes encoding Kv4.2 (Accession: NM_031730.2) and Kv4.3 (Accession: AB003587.1) were subcloned to vector pcDNA3.1. In addition, human cDNA genes encoding Nav1.7 (Accession: DQ857292.1) and Nav1.5 (Accession: AB158469.2) were subcloned to vectors pcDNA3.1-mod and pcDNA3.1, separately. Then, Kv4.2, Kv4.3, Nav1.5 and Nav1.7 constructs were transiently transfected into the human embryonic kidney 293t (HEK293t) cells using lipofectamine 2000 (Invitrogen, USA) in accordance with manufacturer protocols. Thereafter, HEK293 cells were inoculated within Dulbecco’s modified Eagle’s medium (DMEM) containing 10% fetal bovine serum (FBS) at 5% CO2 and 37°C. The Kv4.3 channel and the Kv4.2 counterpart were then transfected in the absence of β subunit. Subsequently, cells were incubated with a DNA-lipofectamine mixture (one reporter plasmid for green fluorescence protein and channel constructs) for 4-6 h, and were washed with the fresh medium.
An EPC-10 patch-clamp amplifier (HEKA, Germany) was employed to record the potassium currents at the configuration of whole-cell patch-clamp under an ambient temperature of 22-25°C. The resistance was 2.0-3.0 MΩ when the recording pipette contained a full volume of internal solution (supplemented with 140 mM KCl, 10 mM HEPES, 2.5 mM MgCl2, 5 mM ATP and 11 mM EGTA). […]

[3] = tested on: Ito potassium channels; test: voltage-clamp, Ito potassium currents in rat DRG neurons; type: cell-based
Description: An EPC-10 patch-clamp amplifier (HEKA, Germany) was employed to record the potassium currents at the configuration of whole-cell patch-clamp under an ambient temperature of 22-25°C. The resistance was 2.0-3.0 MΩ when the recording pipette contained a full volume of internal solution (supplemented with 140 mM KCl, 10 mM HEPES, 2.5 mM MgCl2, 5 mM ATP and 11 mM EGTA). KOH was utilized to adjust the pH to 7.2, while sucrose was employed to adjust the osmolarity to 310 mOsm/L. The culture medium was replaced with an external solution containing 150 mM NaCl, 2.5 mM CaCl2, 10 mM HEPES, 2 mM MgCl2, 5 mM KCl, and 10 mM D-glucose. Similarly, sucrose and NaOH were applied to adjust the osmolarity to 330 mOsm/L and pH to 7.4. […] The series resistance was maintained at about 5 MΩ, with 65-70% compensation. Finally, the leakage currents and linear capacitance were subtracted digitally according to the P/4 protocol. […]
as §1

CC(C)C[C@@H]1NC(=O)[C@H](CCCCN)NC(=O)[C@H](Cc2ccc(O)cc2)NC(=O)[C@@H]2CSSC[C@@H]3NC(=O)[C@H](Cc4ccc(O)cc4)NC(=O)[C@H](Cc4ccccc4)NC(=O)CNC(=O)[C@H](C)NC(=O)[C@H](CSSC[C@H](NC(=O)[C@@H](N)CC(C)C)C(=O)N[C@@H](CO)C(=O)N[C@@H](CCCNC(=N)N)C(=O)N[C@@H](CCC(=O)O)C(=O)NCC(=O)N[C@@H](CCC(=O)O)C(=O)N[C@@H](Cc4ccccc4)C(=O)N2)NC(=O)[C@H](CSSC[C@@H](C(=O)N[C@@H](Cc2ccc(O)cc2)C(=O)N[C@@H](CCCNC(=N)N)C(=O)N[C@@H](CC(N)=O)C(=O)O)NC(=O)[C@H](Cc2c[nH]cn2)NC(=O)[C@H](CC(C)C)NC(=O)[C@H](C(C)C)NC(=O)[C@H](Cc2ccccc2)NC(=O)[C@H](C)NC(=O)[C@H](CCCCN)NC3=O)NC(=O)[C@H](CCCCN)NC(=O)[C@H](CCCNC(=N)N)NC1=O [JZTX-X, Jingzhaotoxin-X] (H-LCSREGEFCYKLRKCCAGFYCKAFVLHCYRN-OH; disulfide 2-16, 9-21, 15-28; N-terminus assumed)
inhibition of Kv1.2 current [1]: less than 5%
effect on Nav1.5 channel [2]: negligible effect; also recorded: did not affect the currents
inhibition of Ito current ([3]; 500 nM, n = 5): 54.4±6.8%
IC50 ([3]; Hill equation fit, n = 6): 386 nM
